{
  "source": "PubChem BioAssay AID1195",
  "about": "(EPA DSSTox, 2008)",
  "test_system": "human maximum recommended daily dose, FDA database",
  "assay": "DSSTox (FDAMDD) FDA Maximum (Recommended) Daily Dose Database",
  "details": "stronger effect = lower value",
  "outline": "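MRDD values come from clinical trials with daily oral dosing, usually for 3–12 months, for the average adult, in mg/day converted to mg/kg-bw/day assuming 60 kg. Antineoplastic mg/m2 doses are divided by 37. Activity score maps log10(1/MRDD mmol) onto 1–100.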",
  "key": {"[1]": {"details": "TherapeuticCategory: antihistaminic"}, "[2]": {"details": "TherapeuticCategory: antibacterial"}, "[3]": {"details": "TherapeuticCategory: sedative, hypnotic"}, "[4]": {"details": "TherapeuticCategory: glucocorticoid, anti inflammatory"}, "[5]": {"details": "TherapeuticCategory: antiulcerative"}},
  "data": [
    {"smiles": "COCCOC(=O)C1=C(C)NC(C)=C(C(=O)OC(C)C)C1c1cccc([N+](=O)[O-])c1", "note": "(stereo unspecified)", "values": [
      {"measurement": "maximum recommended daily dose (mmol/kg-bw/day)", "setting": "TherapeuticCategory: cerebral vasodilator", "result": 0.0143}
    ]},
    {"smiles": "NCCc1ccn[nH]1", "values": [
      {"measurement": "maximum recommended daily dose (mmol/kg-bw/day)", "setting": "TherapeuticCategory: diagnostic aid", "result": 0.0045}
    ]},
    {"smiles": "CC(CN1c2ccccc2Sc2ccccc21)N(C)C", "note": "(stereo unspecified)", "values": [
      {"measurement": "maximum recommended daily dose (mmol/kg-bw/day)", "setting": "[1]", "result": 0.00587}
    ]},
    {"smiles": "CS(=O)(=O)c1ccc([C@@H](O)[C@@H](COC(=O)CN)NC(=O)C(Cl)Cl)cc1", "values": [
      {"measurement": "maximum recommended daily dose (mmol/kg-bw/day)", "setting": "[2]", "result": 0.111}
    ]},
    {"smiles": "CCN(CC)CCOc1ccc(/C(=C(\\Cl)c2ccccc2)c2ccccc2)cc1", "values": [
      {"measurement": "maximum recommended daily dose (mmol/kg-bw/day)", "setting": "TherapeuticCategory: gonad stimulating", "result": 0.00411}
    ]},
    {"smiles": "OCCN1CCN(CCCN2c3ccccc3Sc3ccc(C(F)(F)F)cc32)CC1", "values": [
      {"measurement": "maximum recommended daily dose (mmol/kg-bw/day)", "setting": "TherapeuticCategory: antispsychotic", "result": 0.000761}
    ]},
    {"smiles": "C#C[C@]1(O)CC[C@H]2[C@@H]3CCC4=CC(=O)CC[C@]4(C)[C@H]3CC[C@@]21C", "values": [
      {"measurement": "maximum recommended daily dose (mmol/kg-bw/day)", "setting": "TherapeuticCategory: progestogen", "result": 0.00534}
    ]},
    {"smiles": "CO[C@@]1(NC(=O)CSCC#N)C(=O)N2C(C(=O)O)=C(CSc3nnnn3C)CS[C@@H]21", "values": [
      {"measurement": "maximum recommended daily dose (mmol/kg-bw/day)", "setting": "[2]", "result": 0.212}
    ]},
    {"smiles": "COc1ccc(Cc2nccc3cc(OC)c(OC)cc23)cc1OC", "values": [
      {"measurement": "maximum recommended daily dose (mmol/kg-bw/day)", "setting": "TherapeuticCategory: smooth muscle relaxant, cerebral vasodilator", "result": 0.0295}
    ]},
    {"smiles": "O=C(O)c1cc(N=Nc2ccc(S(=O)(=O)Nc3ccccn3)cc2)ccc1O", "values": [
      {"measurement": "maximum recommended daily dose (mmol/kg-bw/day)", "setting": "TherapeuticCategory: treatment of ulcerative colitis and Crohn's disease", "result": 0.334}
    ]},
    {"smiles": "CCCCCCCCCCCCCCCCCC(=O)OCC(=O)OCC(=O)[C@@]1(O)CC[C@H]2[C@@H]3CCC4=CC(=O)C=C[C@]4(C)[C@H]3[C@@H](O)C[C@@]21C", "values": [
      {"measurement": "maximum recommended daily dose (mmol/kg-bw/day)", "setting": "TherapeuticCategory: glucocorticoid", "result": 0.00486}
    ]},
    {"smiles": "Cc1nnc2n1-c1sc(Br)cc1C(c1ccccc1Cl)=NC2", "values": [
      {"measurement": "maximum recommended daily dose (mmol/kg-bw/day)", "setting": "[3]", "result": "1.06e-05"}
    ]},
    {"smiles": "CC(=O)[C@]1(O)Cc2c(O)c3c(c(O)c2[C@@H](O[C@H]2C[C@H](N)[C@H](O)[C@H](C)O2)C1)C(=O)c1ccccc1C3=O", "values": [
      {"measurement": "maximum recommended daily dose (mmol/kg-bw/day)", "setting": "TherapeuticCategory: antibacterial, antineoplastic", "result": 0.00543}
    ]},
    {"smiles": "CC1=C(C(=O)O)N2C(=O)[C@@H](NC(=O)[C@H](N)c3ccc(O)cc3)[C@H]2SC1", "values": [
      {"measurement": "maximum recommended daily dose (mmol/kg-bw/day)", "setting": "[2]", "result": 0.046}
    ]},
    {"smiles": "NC12CC3CC(CC(C3)C1)C2", "values": [
      {"measurement": "maximum recommended daily dose (mmol/kg-bw/day)", "setting": "TherapeuticCategory: antiviral, antiparkinsonian", "result": 0.0441}
    ]},
    {"smiles": "N[C@@H](Cc1ccc(N(CCCl)CCCl)cc1)C(=O)O", "values": [
      {"measurement": "maximum recommended daily dose (mmol/kg-bw/day)", "setting": "TherapeuticCategory: antineoplastic", "result": 0.000328}
    ]},
    {"smiles": "CCOc1ccccc1OCCN[C@H](C)Cc1ccc(OC)c(S(N)(=O)=O)c1", "values": [
      {"measurement": "maximum recommended daily dose (mmol/kg-bw/day)", "setting": "TherapeuticCategory: alpha 1A androceptor antagonist", "result": "3.26e-05"}
    ]},
    {"smiles": "C[C@@H]1C[C@H]2[C@@H]3CCC4=CC(=O)C=C[C@]4(C)[C@@]3(F)[C@@H](O)C[C@]2(C)[C@@]1(O)C(=O)CO", "values": [
      {"measurement": "maximum recommended daily dose (mmol/kg-bw/day)", "setting": "[4]", "result": 0.000382}
    ]},
    {"smiles": "O=S(=O)(O)CCS", "values": [
      {"measurement": "maximum recommended daily dose (mmol/kg-bw/day)", "setting": "TherapeuticCategory: mucolytic, uroprotective", "result": 0.0281}
    ]},
    {"smiles": "CN1[C@@H]2CC[C@H]1CC(OC(c1ccccc1)c1ccccc1)C2", "note": "(stereo partly specified)", "values": [
      {"measurement": "maximum recommended daily dose (mmol/kg-bw/day)", "setting": "TherapeuticCategory: anticholinergic", "result": 0.000325}
    ]},
    {"smiles": "CN1CCCC(n2nc(Cc3ccc(Cl)cc3)c3ccccc3c2=O)CC1", "note": "(stereo unspecified)", "values": [
      {"measurement": "maximum recommended daily dose (mmol/kg-bw/day)", "setting": "TherapeuticCategory: antiallergic, antiasthmatic, antihistaminic", "result": 0.000348}
    ]},
    {"smiles": "CCCCCCCCCCCCCCCC(=O)OCC(=O)[C@@]1(O)[C@H](C)C[C@H]2[C@@H]3CCC4=CC(=O)C=C[C@]4(C)[C@@]3(F)[C@@H](O)C[C@@]21C", "values": [
      {"measurement": "maximum recommended daily dose (mmol/kg-bw/day)", "setting": "[4]", "result": 0.000238}
    ]},
    {"smiles": "CC(=O)OCC1=C(C(=O)O)N2C(=O)[C@@H](NC(=O)Cc3cccs3)[C@H]2SC1", "values": [
      {"measurement": "maximum recommended daily dose (mmol/kg-bw/day)", "setting": "[2]", "result": 0.252}
    ]},
    {"smiles": "CCN(CC)Cc1cc(Nc2ccnc3cc(Cl)ccc23)ccc1O", "values": [
      {"measurement": "maximum recommended daily dose (mmol/kg-bw/day)", "setting": "TherapeuticCategory: antimalarial", "result": 0.00936}
    ]},
    {"smiles": "C[C@@H]1[C@H](O)[C@@H](C)/C=C/C=C/C=C/C=C/C=C/C=C/C=C/[C@H](O[C@@H]2O[C@H](C)[C@@H](O)[C@H](N)[C@@H]2O)C[C@@H]2O[C@](O)(C[C@@H](O)C[C@@H](O)[C@H](O)CC[C@@H](O)C[C@@H](O)CC(=O)O[C@H]1C)C[C@H](O)[C@H]2C(=O)O", "values": [
      {"measurement": "maximum recommended daily dose (mmol/kg-bw/day)", "setting": "TherapeuticCategory: antifungal", "result": 0.00162}
    ]},
    {"smiles": "CC(C)CC(N(C)C)C1(c2ccc(Cl)cc2)CCC1", "note": "(stereo unspecified)", "values": [
      {"measurement": "maximum recommended daily dose (mmol/kg-bw/day)", "setting": "TherapeuticCategory: anorexic", "result": 0.000893}
    ]},
    {"smiles": "CN(C)CCN(Cc1ccccc1)c1ccccn1", "values": [
      {"measurement": "maximum recommended daily dose (mmol/kg-bw/day)", "setting": "[1]", "result": 0.0392}
    ]},
    {"smiles": "C=CCC1(C(C)C)C(=O)NC(=O)NC1=O", "values": [
      {"measurement": "maximum recommended daily dose (mmol/kg-bw/day)", "setting": "[3]", "result": 0.0127}
    ]},
    {"smiles": "C[C@]12CC[C@@H]3c4ccc(O)cc4CC[C@H]3[C@@H]1CC[C@@H]2O", "values": [
      {"measurement": "maximum recommended daily dose (mmol/kg-bw/day)", "setting": "TherapeuticCategory: estrogen", "result": 0.00184}
    ]},
    {"smiles": "CCN1CC(CCN2CCOCC2)C(c2ccccc2)(c2ccccc2)C1=O", "note": "(stereo unspecified)", "values": [
      {"measurement": "maximum recommended daily dose (mmol/kg-bw/day)", "setting": "TherapeuticCategory: respiratory stimulant", "result": 0.0106}
    ]},
    {"smiles": "CN1CCCCC1CCN1c2ccccc2Sc2ccc(S(C)=O)cc21", "note": "(stereo unspecified)", "values": [
      {"measurement": "maximum recommended daily dose (mmol/kg-bw/day)", "setting": "TherapeuticCategory: antipsychotic", "result": 0.0129}
    ]},
    {"smiles": "CN/C(=C\\[N+](=O)[O-])NCCSCc1csc(CN(C)C)n1", "values": [
      {"measurement": "maximum recommended daily dose (mmol/kg-bw/day)", "setting": "[5]", "result": 0.0151}
    ]},
    {"smiles": "CN=C(NC#N)NCCSCc1nc[nH]c1C", "values": [
      {"measurement": "maximum recommended daily dose (mmol/kg-bw/day)", "setting": "[5]", "result": 0.159}
    ]},
    {"smiles": "OC1OC[C@@H](O)[C@H](O)[C@H]1O", "note": "(stereo partly specified)", "values": [
      {"measurement": "maximum recommended daily dose (mmol/kg-bw/day)", "setting": "TherapeuticCategory: intestinal function diagnostic aid", "result": 2.78}
    ]},
    {"smiles": "NC(CO)(CO)CO", "values": [
      {"measurement": "maximum recommended daily dose (mmol/kg-bw/day)", "setting": "TherapeuticCategory: alkalizer", "result": 2.48}
    ]},
    {"smiles": "CN(C)CCC(c1ccc(Br)cc1)c1ccccn1", "note": "(stereo unspecified)", "values": [
      {"measurement": "maximum recommended daily dose (mmol/kg-bw/day)", "setting": "[1]", "result": 0.00125}
    ]}
  ]
}
